Values quoted from earlier work in patent publication US20080058318A1 (priority 2006, published 2008).

Experiments:
[1] = tested on: subjects suffering from fibromyalgia syndrome; settings: cited from earlier work; for Subjects with significant clinical improvement: after one month; for Difference between treatment group and placebo: at three months
patients with FMS = settings: open-label, cited from earlier work

Row | Compound | Subjects with significant clinical improvement [1] [%] | Difference between treatment group and placebo [1] | Completing patients with insomnia requiring adjunctive medical therapy (patients with FMS; 11 completing patients) | Completing patients with a positive response (50% or greater improvement in two measurements of overall pain) (patients with FMS; 15 patients, 11 completing)
1 | CN(C)CCC=C1c2ccccc2C=Cc2ccccc21 [cyclobenzaprine] | 12 | no difference | – | –
2 | CN(C)CCC=C1c2ccccc2CCc2ccccc21 [amitriptyline] | 21 | no difference | – | –
3 | COc1ccc(C(CN(C)C)C2(O)CCCCC2)cc1 (stereo not drawn) [venlafaxine] | – | – | 3 of 11 | Six of 11
